Measurements as given in publication PMC3937211, “Serine Carboxypeptidase SCPEP1 and Cathepsin A Play Complementary Roles in Regulation of Vasoconstriction via Inactivation of Endothelin-1” (PLoS Genetics, 2014).
No end group written: not given here.

Assays:
[1] = test system: MLC-2 phosphorylation in AVSMC (ETR-A, ETR-B); test: Myosin light chain 2 phosphorylation by Western blot; type: cell-based, mouse; settings: WT AVSMC, 30 min pre-treatment with 2 µM antagonist, then 5 min 100 nM ET-1, 3 independent experiments
Source text: To verify at the molecular level if AVSMC from CathA^S190A/Scpep1^−/− mice have increased reactivity to ET-1, we studied intracellular signalling events in these cells in response to ET-1. ET-1 interacts with G-protein-associated endothelin type A (ETR-A) and type B (ETR-B) receptors on the surface of AVSMC. Activation of the receptors induces phospholipase C and increases the intracellular Ca^2+ level leading to activation of myosin light chain kinase that phosphorylates myosin light chain (MLC) [21]–[24]. This causes contraction of myosin filaments and shrinkage of the cells. We therefore, compared the level of MLC phosphorylation in AVSMC before or after treatment with ET-1 for the 4 strains of mice. AVSMC cultured overnight in serum-free medium were treated with or without 100 nM ET-1, harvested and analyzed by Western blot using antibodies against MLC-2 phosphorylated at Thr^18 and Ser^19 residues or against total MLC protein.
Figure 5 Cultured AVSMC from mice with combined CathA/Scpep1 deficiency show increased reactivity to ET-1. […] Total protein extracts were analyzed by Western blotting using antibodies specific for phosphorylated (pThr^18/Ser^19-MLC) and total MLC-2 protein. […] Total protein extracts were analyzed by Western blotting using antibodies specific for phosphorylated and total MLC-2 protein. […]

mesenteric arteries = test: Vessel reactivity ex vivo; parameters: species or system mouse; settings: isolated mesenteric arteries; WT, Scpep1^−/−, CathA^S190A, DD; drugs added extraluminally
Method: Vessel reactivity ex vivo was analyzed as described, [40]. Briefly, male mice were sacrificed at five months and their mesenteric arteries were isolated and mounted onto glass capillaries in an artereograph chamber filled with cold oxygenated Krebs solution (118.6 mM NaCl, 4.7 mM KCl, 1.2 mM KH2PO4, 1.2 mM MgSO4, 25.1 mM NaHCO3, 26 µM EDTA, 0.18% glucose, 2.5 mM CaCl2). The arteries were constantly perfused intraluminally with Krebs solution at 30 mmHg. After 45 minutes of equilibration vascular reactivity was measured in response to Norepinephrine (Sigma A-0937, 10^−9–10^−5 M), Acetylcholine (Sigma A-6625, 10^−9–10^−4 M), Sodium Nitroprusside (Calbiochem 56538, 10^−9–10^−4 M), Endothelin-1 (American Peptide Company 88-1-10, 10^−11–10^−8 M) and AI, (American Peptide Company 12-1-10, 10^−8–10^−4 M). Drugs were added extraluminally with a 30 min washout period in between each drug, during which the arteries were able to re-equilibrate to a baseline. To test vasodilatation arteries were pre-contracted with NE to 70% of their equilibration diameter. At least 3 concentration response curves were conducted for each vessel and at least 6 animals were studied for each genotype.

[2] = product of ET-1 cleavage by CathA in vitro; ref [13], [14]; cited from earlier work
Source text: The bioavailability and potency of AII and ET-1 can be regulated through many factors such as alteration of receptor density and affinity, up- and down-regulation of peptide synthesis or release, enzymatic activation (ACE and ACE2 for AII, ECE and MMP-2 for ET-1 [8]), or degradation (neutral endopeptidase NEP for ET-1 [9]–[11]). Previously we have shown that circulating ET-1 is inactivated by lysosomal carboxypeptidase, cathepsin A (CathA) widely distributed in mammalian tissues (reviewed in [12]). The majority of CathA in the cell is found in the lysosome but significant pool of the e ...

rats = settings: induced by monocrotaline in rats; ref [33]; cited from earlier work
Source text: The anti-hypertensive effect of retinoic acid tre ...

Compound | differences in vessel reactivity between the four groups of mice (mesenteric arteries) | also measured
BQ788 |  | effect on ET-1-induced MLC-2 phosphorylation [1]: blocked
CC(=O)OCC[N+](C)(C)C [ACh, acetylcholine] | no differences | 
NC[C@H](O)c1ccc(O)c(O)c1 [NE, norepinephrine] | no differences | 
des-Trp21-endothelin-1 (CSCSSLMDKECVYFCHLDII; ends and bridges not checked; cysteine pairing not given here; UniProt P05305 53-72, looked up, fragment) |  | biological activity [2]: biologically inactive
CC1=C(/C=C/C(C)=C/C=C/C(C)=C/C(=O)O)C(C)(C)CCC1 [all-trans retinoic acid] |  | effect on pulmonary hypertension (rats): inhibit pulmonary hypertension
angiotensin I (DRVYIHPFHL; Angiotensin-1; UniProt P01019 25-34, looked up) [AI, precursor of vasoconstrictive peptide AII; American Peptide Company 12-1-10] | no differences | 
